Each structure is given as a SMILES string. “And” between values parts separate entries of the source, which are not always exact repeats. Identical values can stand only once. Like-named read-outs stand apart in the source and are kept apart here.

In one assay the target is NRAS G12C (Homo sapiens (Human), UniProt P01111+P62937, G12C). The experiment in a line: Ras-Raf (BRAF RBD) disruption / FRET / MOA assay, NRAS G12C. To be noted: read-out: IC50* NRAS G12C FRET data. The class given is biochemical. The method in brief: (§1)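 TR-FRET read-out: a drop in ratio relative to DMSO wells marks disruption of the Ras:RAF complex, reported as IC50. Compounds (3-fold series, 10 points, top 30 μM final) incubated 3 h at 25° C before Eu-anti-His 10 nM and APC-anti-GST 50 nM, 1.5 h more.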

Another assay concerns the target K-Ras G13C (Homo sapiens (Human), UniProt P01116+P62937, G13C). The assay is described as follows: Ras-Raf (BRAF RBD) disruption / FRET / MOA assay, KRAS G13C. The following applies: KRAS G13C; Ras-Raf disruption/FRET/MOA assay; read-out: IC50* KRAS G13C FRET data. The class given is biochemical. In short, it runs like this: as §1
In another assay the target is KRAS G12V (Homo sapiens (Human), UniProt P01116+P62937, G12V). The experiment in a line: Ras-Raf (BRAF RBD) disruption / FRET / MOA assay, KRAS G12V. The class given is biochemical. To be noted: read-out: IC50* KRAS G12V FRET data. In short, it runs like this:
as §1

The test system of assay [1] is NCI-H358 cells (K-Ras G12C). The assay is described as follows: Potency assay: pERK in NCI-H358 cells. The class given is cell-based, human. To be noted: H358 KRAS G12C, read-out: pERK EC50. The method in brief:
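Inhibition of cellular pERK after a 4 h treatment, detected by AlphaLISA or In-Cell Western. IC50 from a four-parameter concentration-response fit.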

Another assay addresses KRAS G13D (Homo sapiens (Human), UniProt P01116+P62937, G13D). The experiment in a line: Ras-Raf (BRAF RBD) disruption / FRET / MOA assay, KRAS G13D. The following applies: read-out: IC50* KRAS G13D FRET data. The class given is biochemical. The method, then: The purpose of this biochemical assay is to measure the ability of test compounds to facilitate ternary complex formation between a nucleotide-loaded Ras isoform and cyclophilin A; the resulting ternary complex disrupts binding to a BRAF^RBD construct, inhibiting Ras signaling through a RAF effector.
Compound is present in plate wells as a 10-point 3-fold dilution series starting at a final concentration of 30 μM. After incubation at 25° C. for 3 hours, a mixture of Anti-His Eu-W1024 and anti-GST allophycocyanin is then added to assay sample wells at final concentrations of 10 nM and 50 nM, respectively, and the reaction incubated for an additional 1.5 hours. […] Compounds that facilitate disruption of a Ras:RAF complex are identified as those eliciting a decrease in the TR-FRET ratio relative to DMSO control wells.
This protocol may also be executed substituting other Ras proteins or nucleotides.
The purpose of this biochemical assay was to measure the ability of test compounds to facilitate ternary complex formation between a nucleotide-loaded K-Ras isoform and Cyclophilin A; the resulting ternary complex disrupts binding to a BRAF^RBD construct, inhibiting K-Ras signaling through a RAF effector. Data is reported as IC50 values.
Compound was present in plate wells as a 10-point 3-fold dilution series starting at a final concentration of 30 μM. After incubation at 25° C. for 3 hours, a mixture of Anti-His Eu-W1024 and anti-GST allophycocyanin was then added to assay sample wells at final concentrations of 10 nM and 50 nM, respectively, and the reaction incubated for an additional 1.5 hours. […] Compounds that facilitate disruption of a K-Ras:RAF complex were identified as those eliciting a decrease in the TR-FRET ratio relative to DMSO control wells.

For the next assay, the target named is KRAS WT (Homo sapiens (Human), UniProt P01116+P62937). The experiment in a line: Ras-Raf (BRAF RBD) disruption / FRET / MOA assay, KRAS WT. The class given is biochemical. To be noted: read-out: IC50* KRAS WT FRET data. The method in brief:
as §1

Another assay addresses KRAS G12D (Homo sapiens (Human), UniProt P01116+P62937, G12D). The assay is described as follows: Ras-Raf (BRAF RBD) disruption / FRET / MOA assay, KRAS G12D. The class given is biochemical. The following applies: Ras-Raf disruption/FRET/MOA assay; class symbols; read-out: KRAS G12D FRET data IC50. The method in brief: as §1
Another assay addresses KRAS G12S (Homo sapiens (Human), UniProt P01116+P62937, G12S). The assay is described as follows: Ras-Raf (BRAF RBD) disruption / FRET / MOA assay, KRAS G12S. The class given is biochemical. To be noted: Ras-Raf disruption/FRET/MOA assay; class symbols; read-out: KRAS G12S FRET data IC50. In short, it runs like this: as §1
The target in a further assay is K-Ras G12C (Homo sapiens (Human), UniProt P01116+P62937, G12C). The assay is described as follows: Ras-Raf (BRAF RBD) disruption / FRET / MOA assay, KRAS G12C. The following applies: KRAS G12C; Ras-Raf disruption/FRET/MOA assay; read-out: IC50* KRAS G12C FRET data. The class given is biochemical. The method in brief: as §1
K-Ras G12C, sequence (P01116-2 other isoform, or with tags, fused parts or gaps G12C): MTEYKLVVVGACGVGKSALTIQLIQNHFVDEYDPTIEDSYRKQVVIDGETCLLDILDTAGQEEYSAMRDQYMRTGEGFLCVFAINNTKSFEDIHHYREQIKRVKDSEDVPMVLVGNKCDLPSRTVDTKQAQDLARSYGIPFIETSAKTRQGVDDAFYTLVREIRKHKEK
K-Ras G12C, sequence (P62937 whole entry): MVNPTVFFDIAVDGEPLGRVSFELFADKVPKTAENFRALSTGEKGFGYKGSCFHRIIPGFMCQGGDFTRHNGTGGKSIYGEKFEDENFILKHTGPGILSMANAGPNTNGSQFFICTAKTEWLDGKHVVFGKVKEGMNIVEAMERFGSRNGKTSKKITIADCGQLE

K-Ras G13C, sequence (P01116-2 other isoform, or with tags, fused parts or gaps G13C): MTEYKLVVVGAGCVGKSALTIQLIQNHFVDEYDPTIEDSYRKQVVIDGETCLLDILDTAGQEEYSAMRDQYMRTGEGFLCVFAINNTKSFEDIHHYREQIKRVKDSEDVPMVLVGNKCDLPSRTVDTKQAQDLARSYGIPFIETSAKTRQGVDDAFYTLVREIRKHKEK
K-Ras G13C, sequence (P62937 whole entry): as the sequence (P62937 whole entry) above
KRAS G12V, sequence (P01116-2 other isoform, or with tags, fused parts or gaps G12V): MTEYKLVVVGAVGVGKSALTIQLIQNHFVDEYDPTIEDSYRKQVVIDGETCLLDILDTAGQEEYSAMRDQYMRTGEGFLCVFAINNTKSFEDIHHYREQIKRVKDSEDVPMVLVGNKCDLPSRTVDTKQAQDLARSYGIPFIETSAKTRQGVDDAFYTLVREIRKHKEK
KRAS G12V, sequence (P62937 whole entry): as the sequence (P62937 whole entry) above
NRAS G12C, sequence (P01111 whole entry G12C): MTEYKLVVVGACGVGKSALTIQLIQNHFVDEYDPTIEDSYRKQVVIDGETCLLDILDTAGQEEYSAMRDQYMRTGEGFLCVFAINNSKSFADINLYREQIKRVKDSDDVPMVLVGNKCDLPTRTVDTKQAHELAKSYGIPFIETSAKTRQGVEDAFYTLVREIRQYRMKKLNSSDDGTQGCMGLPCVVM
NRAS G12C, sequence (P62937 whole entry): as the sequence (P62937 whole entry) above
KRAS WT, sequence (P01116-2 other isoform, or with tags, fused parts or gaps): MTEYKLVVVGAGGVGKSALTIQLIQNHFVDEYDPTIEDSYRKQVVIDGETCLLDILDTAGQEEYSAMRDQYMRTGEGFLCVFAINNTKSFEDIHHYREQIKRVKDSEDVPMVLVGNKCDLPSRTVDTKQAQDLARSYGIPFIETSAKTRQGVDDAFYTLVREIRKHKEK
KRAS WT, sequence (P62937 whole entry): as the sequence (P62937 whole entry) above
KRAS G13D, sequence (P01116-2 other isoform, or with tags, fused parts or gaps G13D): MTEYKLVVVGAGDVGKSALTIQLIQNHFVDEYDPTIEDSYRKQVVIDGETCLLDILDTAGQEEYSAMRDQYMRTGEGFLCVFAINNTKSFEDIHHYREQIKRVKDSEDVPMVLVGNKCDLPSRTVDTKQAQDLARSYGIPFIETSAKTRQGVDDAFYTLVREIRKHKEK
KRAS G13D, sequence (P62937 whole entry, canonical isoform): as the sequence (P62937 whole entry) above
KRAS G12S, sequence (P01116-2 other isoform, or with tags, fused parts or gaps G12S): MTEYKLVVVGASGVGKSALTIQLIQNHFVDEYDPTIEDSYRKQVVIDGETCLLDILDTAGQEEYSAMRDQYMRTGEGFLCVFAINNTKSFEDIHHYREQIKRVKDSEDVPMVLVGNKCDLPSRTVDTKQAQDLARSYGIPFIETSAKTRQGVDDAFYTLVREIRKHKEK
KRAS G12S, sequence (P62937 whole entry): as the sequence (P62937 whole entry) above
KRAS G12D, sequence (P01116-2 other isoform, or with tags, fused parts or gaps G12D): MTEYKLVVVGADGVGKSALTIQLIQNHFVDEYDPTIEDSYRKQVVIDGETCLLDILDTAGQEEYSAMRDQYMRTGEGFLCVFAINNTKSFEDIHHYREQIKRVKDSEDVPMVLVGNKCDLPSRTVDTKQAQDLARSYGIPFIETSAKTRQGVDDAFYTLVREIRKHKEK
KRAS G12D, sequence (P62937 whole entry): as the sequence (P62937 whole entry) above

For `C=CC(=O)N1CC[C@@H](C(=O)N(C)[C@H](C(=O)N[C@H]2Cc3cccc(c3)-c3ccc4c(c3)c(c(-c3cccnc3[C@H](C)OC)n4CC)CC(C)(C)COC(=O)[C@@H]3CCCN(N3)C2=O)C(C)C)C1` (atropisomer, axis not shown) [Example A488], the IC50 on NRAS G12C was 100 to 1000 nM; at K-Ras G13C, 100 to 1000 nM; at KRAS G12V it was 1000 to 10000 nM; on KRAS G13D, 1000 to 10000 nM; at KRAS WT, 1000 to 10000 nM; on KRAS G12D, 1000 to 10000 nM. Also, the IC50 on KRAS G12S fell in the range of 1000 to 10000 nM; on K-Ras G12C, 100 to 1000 nM. In addition, the concentration giving a half-maximal response (EC50) in [1] (Homo sapiens, NCI-H358) was < 5000 nM.

For the molecule `C=CC(=O)N1CC[C@H](C(=O)N(C)[C@H](C(=O)N[C@H]2Cc3cccc(c3)-c3ccc4c(c3)c(c(-c3cc(C5CCN(C)CC5)cnc3[C@H](C)OC)n4CC)CC(C)(C)COC(=O)[C@@H]3CCCN(N3)C2=O)C(C)C)C1` (atropisomer, axis not shown) [Example A515], the IC50 on NRAS G12C fell in the range of 10 to 100 nM; on K-Ras G13C, 100 to 1000 nM; on KRAS G12V, 1000 to 10000 nM; at KRAS G13D, 1000 to 10000 nM; on KRAS WT, 1000 to 10000 nM; on KRAS G12D it was 1000 to 10000 nM. The IC50 at KRAS G12S was 100 to 1000 nM; on K-Ras G12C, 10 to 100 nM. In addition, in assay [1] (Homo sapiens, NCI-H358), the half-maximal effective concentration (EC50) is < 5000 nM.

Regarding `C=CC(=O)N1CC[C@H](C(=O)N(C)[C@H](C(=O)N[C@H]2Cc3nc(cs3)-c3ccc4c(c3)c(c(-c3cc(C5=CCN(C)CC5)cnc3[C@H](C)OC)n4CC)CC(C)(C)COC(=O)[C@@H]3CCCN(N3)C2=O)C(C)C)C1` (atropisomer, axis not shown) [Example A520], the IC50 at NRAS G12C lay in the range of 100 to 1000 nM; at K-Ras G13C, 1000 to 10000 nM; on KRAS G12V, 1000 to 10000 nM; on KRAS G13D it was 1000 to 10000 nM; on KRAS WT it was 1000 to 10000 nM; on KRAS G12D it was 1000 to 10000 nM. Further, the IC50 lay within 1000 to 10000 nM on KRAS G12S and 100 to 1000 nM at K-Ras G12C. Also, in [1], the EC50 was < 5000 nM.

As for `C=CC(=O)Nc1cnc(C(=O)N(C)[C@H](C(=O)N[C@H]2Cc3cccc(c3)-c3ccc4c(c3)c(c(-c3cccnc3[C@H](C)OC)n4CC)CC(C)(C)COC(=O)[C@@H]3CCCN(N3)C2=O)C(C)C)n1C` (atropisomer, axis not shown) [Example A525], the IC50 at NRAS G12C was in the range of 10 to 100 nM; at K-Ras G13C, 10 to 100 nM; on KRAS G12V it was 1000 to 10000 nM; at KRAS G13D it was 1000 to 10000 nM; on KRAS WT it was 1000 to 10000 nM; on KRAS G12D, 1000 to 10000 nM. The IC50 fell in the range of 1000 to 10000 nM at KRAS G12S and 10 to 100 nM at K-Ras G12C. Also, in assay [1], the EC50 is < 5000 nM.

Regarding `CCn1c(-c2cnccc2COC)c2c3cc(ccc31)-c1ccnc(c1)C[C@H](NC(=O)[C@H](C(C)C)N(C)C(=O)[C@H]1CCN(C(=O)C#CCN(C)C)C1)C(=O)N1CCC[C@H](N1)C(=O)OCC(C)(C)C2` [Example A130], the IC50 on NRAS G12C was < 10 nM; on K-Ras G13C, 100 to 1000 nM; on KRAS G12V, > 10000 nM; at KRAS G13D, 1000 to 10000 nM; on KRAS WT, > 10000 nM; at KRAS G12D, 1000 to 10000 nM. For the same molecule, the IC50 was > 10000 nM on KRAS G12S and < 10 nM at K-Ras G12C. Besides, the EC50 in [1] (Homo sapiens, NCI-H358) is < 5000 nM.

As to `CCn1c(-c2cncnc2)c2c3cc(ccc31)-c1cccc(c1)C[C@H](NC(=O)[C@H](C(C)C)N(C)C(=O)[C@H]1CCN(C(=O)C#CCN(C)C)C1)C(=O)N1CCC[C@H](N1)C(=O)OCC(C)(C)C2` [Example A144], the IC50 was 10 to 100 nM and 100 to 1000 nM on NRAS G12C; 1000 to 10000 nM at K-Ras G13C; > 10000 nM on KRAS G12V; 1000 to 10000 nM at KRAS G13D; > 10000 nM at KRAS WT; 1000 to 10000 nM at KRAS G12D. Besides, the IC50 on KRAS G12S is > 10000 nM; on K-Ras G12C, 10 to 100 nM and 100 to 1000 nM. In addition, in assay [1] (Homo sapiens, NCI-H358), the EC50 was < 5000 nM.

What is called IC50 is the concentration at which inhibition is half-maximal. For orientation: EC50 means the midpoint of the concentration-response curve.

(Values after US11566007B2, “Ras inhibitors” (Revolution Medicines, Inc., priority 2019, dated 2023).)
